Literature values as cited in publication PMC4744661 (Diabetes/Metabolism Research and Reviews, 2015).

System: gastric emptying
Settings: healthy volunteers and patients with T2DM

| Substance | effect on gastric emptying / acetaminophen exposure |
| --- | --- |
| exenatide [exenatide BID] | substantially slowed gastric emptying |
| liraglutide (HAEGTFTSDVSSYLEGQAAKEFIAWLVRGRG; chains of the INN, looked up) | equivalent effects on acetaminophen exposure |
